Paper PMC8329713, “The identification and structural analysis of potential 14-3-3 interaction sites on the bone regulator protein Schnurri-3” (Acta Crystallographica. Section F, Structural Biology …, 2021)
Non-standard residues stand in square brackets, D forms with d. No end group written: not given here. pS = N[C@@H](COP(=O)(O)O)C(=O)O

Legend:
[1] = molecular target: T1, 14-3-3σ (Homo sapiens, UniProt P31947); assay: Isothermal titration calorimetry (ITC) under reducing conditions, 14-3-3σ; type: binding; details: FITC-labelled peptide titrated into 14-3-3σ, 18 injections of 2 µl, 25°C, 50 mM Tris pH 7.5, 150 mM NaCl, 5 mM MgCl2, 2 mM 2-mercaptoethanol, 0.05%(v/v) Tween-20
T1 construct: The full-length 14-3-3 isoforms were used in biophysical assays; His6 (cleaved yes); made in house; host or cells: Escherichia coli NiCo21(DE3)
T1 sequence (P31947 1-248): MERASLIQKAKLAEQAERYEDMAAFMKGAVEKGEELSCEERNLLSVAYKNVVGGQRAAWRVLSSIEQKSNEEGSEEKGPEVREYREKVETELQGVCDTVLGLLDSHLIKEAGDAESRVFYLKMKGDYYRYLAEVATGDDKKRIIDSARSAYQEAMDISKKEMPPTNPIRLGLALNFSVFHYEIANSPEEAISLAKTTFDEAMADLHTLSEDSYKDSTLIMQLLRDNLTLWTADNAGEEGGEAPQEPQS
Method: (§1) 14-3-3 isoforms γ, τ, σ, ɛ, η, ζ, β (full length) and 14-3-3σΔC (residues 231–248 deleted) were expressed with a His6 tag in Escherichia coli NiCo21(DE3) competent cells from a pPRoeX-Htb vector in 2×TY medium. Purification was carried out by affinity chromatography on nickel columns (HisTrap HP, 5 ml). The tags were cleaved with TEV protease. The proteins were then loaded again onto nickel columns to remove any noncleaved protein. A final purification step was performed by loading the proteins onto a size-exclusion chromatography column (HiLoad 26/600 Superdex 75 pg) equilibrated in 20 mM Tris–HCl pH 7.5, 150 mM NaCl, 2 mM DTT. All purification steps were performed on an ÄKTApure protein-purification system (Cytiva). The full-length 14-3-3 isoforms were used in biophysical assays and the 14-3-3σΔC construct was used for crystallographic purposes. […]
(§2) Fluorescence polarization (FP) binding assays were carried out in Corning 384-well 3575 plates, serially diluting (twofold) the 14-3-3 isoforms in the presence of 10 nM FITC-labelled peptides. […] The data were collected on a PHERAstar FSX plate reader (BMG Labtech) with an excitation wavelength of 485 nm and an emisson wavelength of 520 nm. […] The data were analysed using the MicroCal PEAQ-ITC Analysis Software (Malvern).

[2] = molecular target: T1, 14-3-3σ; assay: X-ray protein crystallography with 14-3-3σΔC; details: crystal structures with 14-3-3σΔC, PDB 7b13 (SHN3pS542) and 7b15 (SHN3pT869)
Method: 14-3-3 isoforms γ, τ, σ, ɛ, η, ζ, β (full length) and 14-3-3σΔC (residues 231–248 deleted) were expressed with a His6 tag in Escherichia coli NiCo21(DE3) competent cells from a pPRoeX-Htb vector in 2×TY medium. Purification was carried out by affinity chromatography on nickel columns (HisTrap HP, 5 ml). The tags were cleaved with TEV protease. The proteins were then loaded again onto nickel columns to remove any noncleaved protein. A final purification step was performed by loading the proteins onto a size-exclusion chromatography column (HiLoad 26/600 Superdex 75 pg) equilibrated in 20 mM Tris–HCl pH 7.5, 150 mM NaCl, 2 mM DTT. All purification steps were performed on an ÄKTApure protein-purification system (Cytiva). The full-length 14-3-3 isoforms were used in biophysical assays and the 14-3-3σΔC construct was used for crystallographic purposes.
The peptides SHN3pS542 (LLRSHpS542MPSAAC) and SHN3pT869 (PDRPDpT869EPEPPP) were ordered with a purity of >95% from GenScript in an N-terminally acetylated version and an N-terminally FITC-Ahx-labelled version.
For protein crystallization, a C-terminally truncated version of 14-3-3σ was used (14-3-3σΔC; deletion of the 17 C-terminal amino acids; Schumacher et al., 2010[▸]). […]

[3] = test system: 14-3-3 isoforms; assay: Fluorescence polarization (FP) binding assay, all 14-3-3 isoforms taken together; set-up: species or system human; details: FITC-labelled peptide 10 nM, only a modest FP signal at the highest concentrations, not possible to calculate Kd values
Method: as §1, §2

[4] = molecular target: T2, 14-3-3γ (full length) (human, UniProt P61981 1-247); assay: ITC; peptide titrated into the cell containing the 14-3-3 protein, 18 injections of 2 µl, 25°C; 50 mM Tris pH 7.5, 150 mM NaCl, 5 mM MgCl2, 2 mM 2-mercaptoethanol, 0.05% Tween-20 (reducing conditions); details: both partners purified
T2 construct: 14-3-3 protein gamma, human, full length; Expressed from a pPRoeX-Htb vector; also called 14-3-3 isoform γ; source: E. coli NiCo21(DE3), purified (nickel column, TEV cleavage, second nickel column, SEC)
T2 sequence (looked up): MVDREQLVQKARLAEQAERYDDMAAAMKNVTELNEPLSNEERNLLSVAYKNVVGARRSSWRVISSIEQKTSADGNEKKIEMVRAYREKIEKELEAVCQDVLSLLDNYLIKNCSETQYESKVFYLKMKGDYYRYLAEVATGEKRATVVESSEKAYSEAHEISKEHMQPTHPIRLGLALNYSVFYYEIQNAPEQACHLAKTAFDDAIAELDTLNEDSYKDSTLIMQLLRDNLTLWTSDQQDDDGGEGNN

[5] = molecular target: T3, 14-3-3σ (full length) (human, UniProt P31947 1-248); assay: as above; details: both partners purified
T3 construct: 14-3-3 protein sigma, human, full length; Expressed from a pPRoeX-Htb vector; also called 14-3-3 isoform σ; the σ isoform; source: E. coli NiCo21(DE3), purified (nickel column, TEV cleavage, second nickel column, SEC)
T3 sequence (looked up): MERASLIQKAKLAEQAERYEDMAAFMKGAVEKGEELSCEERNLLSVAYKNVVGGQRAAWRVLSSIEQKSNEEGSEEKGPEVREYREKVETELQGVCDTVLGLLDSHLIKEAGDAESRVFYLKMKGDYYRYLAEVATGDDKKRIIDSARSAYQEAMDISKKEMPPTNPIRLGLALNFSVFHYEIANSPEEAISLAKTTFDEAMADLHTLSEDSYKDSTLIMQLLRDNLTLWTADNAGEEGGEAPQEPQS

Q: With “LLRSHpS542MPSAAC [SHN3pS542-FITC, N-terminally FITC-Ahx-labelled version of SHN3pS542, as used in the FP assay]” as the molecule, how does the Kd [1] read?
A: 4.8 ± 0.8 µM

Q: With “PDRPDpT869EPEPPP [SHN3pT869, synthetic phosphopeptide PDRPDpT869EPEPPP derived from human Schnurri-3 (SHN3)]” as the molecule, how does the “polar contacts with 14-3-3σ residues” value [2] read?
A: Polar contacts are established between Glu872 and Glu870 of SHN3pT869 and Asn50, Lys122, Lys49 and Asn175 on the C-terminal side of the peptide and between Asp868 and Pro867 of SHN3pT869 and Asn226 on the N-terminal side of the peptide

Q: And the “binding to 14-3-3 isoforms (in words)” value [3]?
A: very weak 14-3-3 binder

B1: SHN3pS542 peptide, N-terminally acetylated (peptide)
peptide: Ac-LLRSH[pS]MPSAAC
modifications: also: phosphoserine at 542, position not mapped
notes: Schnurri-3 (SHN3, transcription factor HIVEP3), human, 12-mer around phosphorylated Ser542; also called the acetylated peptide; source: synthetic peptide, bought: GenScript (purity >95%)
Q: How did the Kd [4] turn out when B1 was run?
A: 0.69 ± 0.15 µM

Q: What about the Kd [5] of the same molecule?
A: 5.8 ± 1.3 µM
